Earlier results as cited in patent US20040067267A1, “Process for preparation of cholesterol lowering compositions from garlic” (priority 2002, published 2004).

Tests used:
HMG CoA reductase = molecular target: T1, HMG CoA reductase (Homo sapiens, UniProt P04035); details: for lowering of plasma LDL cholesterol levels: alone; for decrease of LDL levels: given along with bile acid binding resin (Bilheimer et al 1983)
T1 sequence (P04035 1-888): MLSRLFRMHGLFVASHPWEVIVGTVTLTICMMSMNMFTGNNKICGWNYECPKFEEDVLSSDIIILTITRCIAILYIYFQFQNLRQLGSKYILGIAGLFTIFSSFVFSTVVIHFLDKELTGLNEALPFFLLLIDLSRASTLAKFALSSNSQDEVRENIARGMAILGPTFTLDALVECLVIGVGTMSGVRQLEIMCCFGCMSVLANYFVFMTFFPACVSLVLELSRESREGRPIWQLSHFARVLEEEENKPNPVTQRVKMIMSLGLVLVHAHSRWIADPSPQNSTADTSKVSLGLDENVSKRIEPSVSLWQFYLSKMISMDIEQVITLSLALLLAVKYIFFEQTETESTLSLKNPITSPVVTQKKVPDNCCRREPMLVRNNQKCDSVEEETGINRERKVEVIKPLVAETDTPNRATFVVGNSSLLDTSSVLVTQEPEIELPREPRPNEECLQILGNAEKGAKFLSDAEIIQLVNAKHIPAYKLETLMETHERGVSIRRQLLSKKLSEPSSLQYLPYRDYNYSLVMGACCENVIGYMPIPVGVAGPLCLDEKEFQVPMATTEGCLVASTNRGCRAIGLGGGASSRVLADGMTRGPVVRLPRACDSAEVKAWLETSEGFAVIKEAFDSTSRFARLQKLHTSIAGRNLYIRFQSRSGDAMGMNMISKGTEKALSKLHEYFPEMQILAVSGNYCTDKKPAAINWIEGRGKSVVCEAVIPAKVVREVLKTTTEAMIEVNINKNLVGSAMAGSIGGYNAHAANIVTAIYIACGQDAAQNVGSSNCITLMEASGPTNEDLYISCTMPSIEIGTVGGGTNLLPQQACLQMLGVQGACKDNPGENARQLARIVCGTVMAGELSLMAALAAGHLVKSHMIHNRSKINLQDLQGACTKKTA

[1] = patients with primary hypercholesterolemia (Hoeg et al. 1984)

Molecule	oral LD 50, female (mice) [mg/kg b.wt]	oral LD 50, male (mice) [mg/kg b.wt]	lowering of plasma LDL cholesterol levels (HMG CoA reductase) [%]	decrease of LDL levels (HMG CoA reductase) [%]	reduction of LDL cholesterol [1]
C=CCSC[C@H](N)C(=O)O [s-allyl-L-cysteine]	9390	8890			
C=CCSSCC=C [diallyldisulfide]	130	145			
CC[C@H](C)C(=O)O[C@H]1CCC=C2C=C[C@H](C)[C@H](CC[C@@H]3C[C@@H](O)CC(=O)O3)[C@H]21 [Compaction]			30	50	
NC[C@@H]1O[C@H](O[C@H]2[C@@H](O)[C@H](O[C@@H]3[C@@H](O)[C@H](N)C[C@H](N)[C@H]3O[C@H]3O[C@H](CN)[C@@H](O)[C@H](O)[C@H]3N)O[C@@H]2CO)[C@H](N)[C@@H](O)[C@@H]1O [Neomycin]					15-20%
mevinolin			30	50	
C=CCSCC=C [diallyl sulfide]	1805	2029			
C=CCS[S+]([O-])CC=C (stereo not shown) [allicin]	363	309			
